For orientation: EC50 means the concentration at which the effect is half-maximal.

Where only a bound is given, the exact number is not on record here.

Sequence of hTREM2 (Q9NZC2 19-230): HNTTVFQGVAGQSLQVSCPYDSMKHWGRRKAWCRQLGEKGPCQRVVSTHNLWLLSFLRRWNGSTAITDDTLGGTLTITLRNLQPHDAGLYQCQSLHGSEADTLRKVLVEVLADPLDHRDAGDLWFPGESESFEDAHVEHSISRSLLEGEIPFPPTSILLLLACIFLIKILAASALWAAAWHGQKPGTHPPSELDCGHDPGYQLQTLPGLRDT
Sequence of hTREM2 (O43914 22-113 partner): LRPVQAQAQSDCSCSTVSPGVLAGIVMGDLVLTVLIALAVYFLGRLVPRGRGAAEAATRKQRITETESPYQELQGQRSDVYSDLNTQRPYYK

The target of the assay is hTREM2 (Homo sapiens, UniProt Q9NZC2). The experiment in a line: TREM2 agonist potency by Syk phosphorylation (AlphaLisa) in HEK293T-hTREM2 cells, used for Examples 306-429. It counts as cell-based. Conditions: HEK293 Cells. Set-up: expressed in transfected cells; host or cells: HEK293T (HEK293T-hTREM2 cells). As to the method:
In vitro Measurement of Triggering Receptor Expressed on Myeloid Cells 2 activity using cellular phosphorylation of Spleen Tyrosine Kinase (“Syk”) Assays used for Examples 306-429
Measurement of TREM2 agonist potency was done using a HEK cell line expressing human TREM2 and DAP12 (HEK293T-hTREM2 cells). Binding of small molecules to, and activation of, TREM2 increases the phosphorylation of Syk. The resultant levels of Syk phosphorylation were measured using a commercial AlphaLisa reagent kit. To perform the assay, HEK-hTREM2 cells were plated at 14,000 cells per well in a 384 well plate, in 25 μL, of complete growth media and incubated at 37° C., 5% CO2 for 20-24 hours. Prior to the assay, test compounds were diluted in the 384 well plates in assay buffer and allowed to equilibrate for 30 minutes. Growth media was removed from cell plates by inversion on blotting paper, and 25 μL of test compounds in assay buffer was added to cells. Cells were incubated for 45 minutes at room temperature. After 45 minutes, assay buffer was removed and 10 μL of lysis buffer was added. Plates were shaken for 20 minutes at 350 RPM at room temperature. After complete lysis, AlphaLisa reagents were added to the lysate, and fluourescence intensity was measured using a Perkin Elmer Envision plate reader. Intensities were used to generate a standard curve, and % activation was calculated. Curve fitting was performed using Prism v9 software, log(agonist) vs response-variable slope (four parameters), and EC50s were calculated from the curve fit.
The results presented in Table 20 have been generated with the in vitro assay described above for Examples 306-429. This assay may be used to test any of the compounds described herein to assess and characterize a compound's ability to act as an agonist of TREM2.
The compound `Cc1nc2cc([C@H]3CCO[C@@H](c4cnn(C5CC5)c4)C3)nc(C34CC(C(F)(F)F)(C3)C4)c2nc1C` (mixture of isomers) [Example 392, 2,3-dimethyl-7-[2-(1-cyclopropylpyrazol-4-yl)tetrahydropyran-4-yl]-5-[3-(trifluoromethyl)-1-bicyclo[1.1.1]pentanyl]pyrido[3,4-b]pyrazine] came in with a 50% effective concentration (EC50) of at most 50 nM.

Compound `Cc1cc([C@H]2C[C@H](c3cc4nc(C)c(C)nc4c(-c4ccc(C(F)(F)F)nc4)n3)CCO2)ccn1` (racemic) [Example 306] had a concentration for a half-maximal effect (EC50) of 50 to 500 nM.

The compound `Cc1cc([C@H]2C[C@@H](c3cc4nc(C)cnc4c(-c4ccc(F)cc4F)n3)CCO2)ccn1` (racemic) [Example 307, 5-(2,4-difluorophenyl)-2-methyl-7-(2-(2-methylpyridin-4-yl)tetrahydro-2H-pyran-4-yl)pyrido[3,4-b]pyrazine] gave a concentration giving a half-maximal response (EC50) of 50 to 500 nM.

Turning to `Cc1cc([C@H]2C[C@@H](c3cc4nc(C)cnc4c(-c4ccc(C(F)(F)F)nc4)n3)CCO2)ccn1` (racemic) [Example 308, 2-methyl-7-(2-(2-methylpyridin-4-yl)tetrahydro-2H-pyran-4-yl)-5-(6-(trifluoromethyl)pyridin-3-yl)pyrido[3,4-b]pyrazine], the EC50 fell in the range of 50 to 500 nM.

As to `Cc1cc([C@H]2C[C@@H](c3nc(-c4ccc(C(F)(F)F)nc4)c4nc(C)c(C)nc4n3)CCO2)ccn1` (racemic) [Example 309, 6,7-dimethyl-2-(2-(2-methylpyridin-4-yl)tetrahydro-2H-pyran-4-yl)-4-(6-(trifluoromethyl)pyridin-3-yl)pteridine], the EC50 was in the range of 50 to 500 nM.

`Cc1cc([C@H]2C[C@@H](c3cc4nc(C)cnc4c(-c4ccc(Cl)cc4F)n3)CCO2)ccn1` (racemic) [Example 310, 5-(4-chloro-2-fluorophenyl)-2-methyl-7-(2-(2-methylpyridin-4-yl)tetrahydro-2H-pyran-4-yl)pyrido[3,4-b]pyrazine] gave a concentration for a half-maximal effect (EC50) of 50 to 500 nM.

Compound `COc1cc(C2CN(c3nc4nc(C)c(C)nc4c([C@]45C[C@](C(F)(F)F)(C4)C5)n3)CCO2)ccn1` (mixture of isomers) [Example 318, 4-(6,7-dimethyl-4-(3-(trifluoromethyl)bicyclo[1.1.1]pentan-1-yl)pteridin-2-yl)-2-(2-methoxypyridin-4-yl)morpholine] returned an EC50 of at most 50 nM.

In the case of `Cc1cc(C2CC(c3cc4nc(C)c(C)nc4c([C@]45C[C@](C(F)(F)F)(C4)C5)n3)CCO2)ccn1` (mixture of isomers) [Example 319, 2,3-dimethyl-7-(2-(2-methylpyridin-4-yl)tetrahydro-2H-pyran-4-yl)-5-(3-(trifluoromethyl)bicyclo[1.1.1]pentan-1-yl)pyrido[3,4-b]pyrazine], the half-maximal effective concentration (EC50) was at most 50 nM.

`Cc1cc([C@H]2C[C@@H](c3nc(-c4ccc(F)cc4F)c4ccc(C)nc4n3)CCO2)ccn1` (racemic) [Example 323, 4-(2,4-difluorophenyl)-7-methyl-2-(2-(2-methylpyridin-4-yl)tetrahydro-2H-pyran-4-yl)pyrido[2,3-d]pyrimidine] showed a 50% effective concentration (EC50) of at most 50 nM.

As for `Cc1cc([C@H]2C[C@@H](c3nc(-c4ccc(Cl)cc4F)c4ccc(C)nc4n3)CCO2)ccn1` (racemic) [Example 325, 4-(4-chloro-2-fluorophenyl)-7-methyl-2-(2-(2-methylpyridin-4-yl)tetrahydro-2H-pyran-4-yl)pyrido[2,3-d]pyrimidine], the EC50 was at most 50 nM.

`Cc1cnc2c(C34CC(C(F)(F)F)(C3)C4)nc(N3C[C@H](C)O[C@@H](c4cnn(C5CC5)c4)C3)nc2n1` (racemic) [Example 355, 2-(1-cyclopropyl-1H-pyrazol-4-yl)-6-methyl-4-(7-methyl-4-(3-(trifluoromethyl)bicyclo[1.1.1]pentan-1-yl)pteridin-2-yl)morpholine] yielded an EC50 of 50 to 500 nM.

In the case of `Cc1nc2cc(N3C[C@H](C)O[C@@H](c4cnn(C5CC5)c4)C3)nc(-c3ccc(F)cc3F)c2nc1C` (racemic) [Example 357, 2-(1-cyclopropyl-1H-pyrazol-4-yl)-4-(5-(2,4-difluorophenyl)-2,3-dimethylpyrido[3,4-b]pyrazin-7-yl)-6-methylmorpholine], the EC50 is at most 50 nM.

As to `Cc1nc2cc(N3C[C@@H](C)O[C@@H](c4cnn(C5CC5)c4)C3)nc(-c3ccc(F)cc3F)c2nc1C` (racemic) [Example 358, 2-(1-cyclopropyl-1H-pyrazol-4-yl)-4-(5-(2,4-difluorophenyl)-2,3-dimethylpyrido[3,4-b]pyrazin-7-yl)-6-methylmorpholine], the EC50 is at most 50 nM.

On to `Cc1cnc2c(-c3ccc(F)cc3F)nc(N3C[C@H](C)O[C@@H](c4cnn(C5CC5)c4)C3)cc2n1` (racemic) [Example 361, 2-(1-cyclopropyl-1H-pyrazol-4-yl)-4-(5-(2,4-difluorophenyl)-2-methylpyrido[3,4-b]pyrazin-7-yl)-6-methylmorpholine], for which the EC50 was in the range of 50 to 500 nM.

In turn, `Cc1cnc2c(-c3ccc(F)cc3F)nc(N3C[C@@H](C)O[C@@H](c4cnn(C5CC5)c4)C3)cc2n1` (racemic) [Example 362, 2-(1-cyclopropyl-1H-pyrazol-4-yl)-4-(5-(2,4-difluorophenyl)-2-methylpyrido[3,4-b]pyrazin-7-yl)-6-methylmorpholine] gave an EC50 of at most 50 nM.

Take `Cc1cnc2c(-c3ccc(Cl)cc3F)nc(N3C[C@@H](C)O[C@@H](c4cnn(C5CC5)c4)C3)cc2n1` (racemic) [Example 368, 4-(5-(4-chloro-2-fluorophenyl)-2-methylpyrido[3,4-b]pyrazin-7-yl)-2-(1-cyclopropyl-1H-pyrazol-4-yl)-6-methylmorpholine]: the half-maximal effective concentration (EC50) lay within 50 to 500 nM.

Consider `Cc1cnc2c(-c3ccc(F)cc3F)nc(N3C[C@H](C)O[C@@H](c4cnn(C5CC5)c4)C3)nc2n1` (racemic) [Example 370, 2-(1-cyclopropyl-1H-pyrazol-4-yl)-4-(4-(2,4-difluorophenyl)-7-methylpteridin-2-yl)-6-methylmorpholine], for which the half-maximal effective concentration (EC50) is 50 to 500 nM.

For the compound `Cc1cnc2c(-c3ccc(F)cc3F)nc(N3C[C@@H](C)O[C@@H](c4cnn(C5CC5)c4)C3)nc2n1` (racemic) [Example 371, 2-(1-cyclopropyl-1H-pyrazol-4-yl)-4-(4-(2,4-difluorophenyl)-7-methylpteridin-2-yl)-6-methylmorpholine], the EC50 is at most 50 nM.

For the compound `Cc1nc2nc(N3C[C@H](C)O[C@@H](c4cnn(C5CC5)c4)C3)nc(-c3ccc(Cl)cc3F)c2nc1C` (racemic) [Example 372, 4-(4-(4-chloro-2-fluorophenyl)-6,7-dimethylpteridin-2-yl)-2-(1-cyclopropyl-1H-pyrazol-4-yl)-6-methylmorpholine], the EC50 was at most 50 nM.

Consider `Cc1nc2nc(N3C[C@@H](C)O[C@@H](c4cnn(C5CC5)c4)C3)nc(-c3ccc(Cl)cc3F)c2nc1C` (racemic) [Example 373, 4-(4-(4-chloro-2-fluorophenyl)-6,7-dimethylpteridin-2-yl)-2-(1-cyclopropyl-1H-pyrazol-4-yl)-6-methylmorpholine], for which the EC50 is at most 50 nM.

Turning to `Cc1cnc2c(-c3ccc(Cl)cc3F)nc(N3C[C@H](C)O[C@@H](c4cnn(C5CC5)c4)C3)nc2n1` (racemic) [Example 374, 4-(4-(4-chloro-2-fluorophenyl)-7-methylpteridin-2-yl)-2-(1-cyclopropyl-1H-pyrazol-4-yl)-6-methylmorpholine], the EC50 is at most 50 nM.

With `Cc1cnc2c(C34CC(C(F)(F)F)(C3)C4)nc(N3C[C@@H](C)O[C@@H](c4cnn(C5CC5)c4)C3)cc2n1` (racemic) [Example 377, 2-(1-cyclopropylpyrazol-4-yl)-6-methyl-4-[2-methyl-5-[3-(trifluoromethyl)-1-bicyclo[1.1.1]pentanyl]pyrido[3,4-b]pyrazin-7-yl]morpholine], the half-maximal effective concentration (EC50) was 50 to 500 nM.

The compound `Cc1nc2cc(N3C[C@H](C)O[C@@H](c4cnn(C5CC5)c4)C3)nc(C34CC(C(F)(F)F)(C3)C4)c2nc1C` (racemic) [Example 378, 2-(1-cyclopropylpyrazol-4-yl)-4-[2,3-dimethyl-5-[3-(trifluoromethyl)-1-bicyclo[1.1.1]pentanyl]pyrido[3,4-b]pyrazin-7-yl]-6-methyl-morpholine] came in with an EC50 of 50 to 500 nM.

`Cc1nc2cc(N3C[C@@H](C)O[C@@H](c4cnn(C5CC5)c4)C3)nc(C34CC(C(F)(F)F)(C3)C4)c2nc1C` (racemic) [Example 379, 2-(1-cyclopropylpyrazol-4-yl)-4-[2,3-dimethyl-5-[3-(trifluoromethyl)-1-bicyclo[1.1.1]pentanyl]pyrido[3,4-b]pyrazin-7-yl]-6-methyl-morpholine] came in with a half-maximal effective concentration (EC50) of 50 to 500 nM.

For `Cc1cnc2c(C34CC(C(F)(F)F)(C3)C4)nc([C@H]3CCO[C@@H](c4cnn(C5CC5)c4)C3)cc2n1` (racemic) [Example 386, 2-methyl-7-[2-(1-cyclopropylpyrazol-4-yl)tetrahydropyran-4-yl]-5-[3-(trifluoromethyl)-1-bicyclo[1.1.1]pentanyl]pyrido[3,4-b]pyrazine], the half-maximal effective concentration (EC50) is at most 50 nM.

Values taken from patent US11884675B2, “Heterocyclic compounds as triggering receptor expressed on myeloid cells 2 agonists and methods of use” (AMGEN INC., priority 2020, dated 2024).
